Source: ChEMBL document CHEMBL3045028, “Synthesis, AntiBacteriol, and Antifungal Activities of Some New Benzimidazoles” (1992)
Calls of active or inactive are those of the source. No cut-off for these calls is given here.

Key:
Assay type in all cases: functional
Alternaria alternata = test: In vivo antifungal activity against Alternaria tenuis; design: concentration or dose not given beside the values
[1] = test system: Xanthomonas campestris pv. campestris; test: In vitro antibacterial activity against Xanthomonas campestris pv. campestris KF2 assessed as inhibition at 0.1 %
[2] = test system: Xanthomonas euvesicatoria; test: In vitro antibacterial activity against Xanthomonas euvesicatoria P-2092 assessed as inhibition at 0.1 %
Agrobacterium sp. = test: In vitro antibacterial activity against Agrobacterium radiobacter pv. tumefaciens assessed as inhibition at 0.1 %
Botrytis cinerea = test: In vitro antifungal activity against Botryotinia fuckeliana assessed as inhibition at 0.1 %
[3] = test system: Agrobacterium tumefaciens; test: In vivo antibacterial activity against Agrobacterium tumefaciens infected carrots assessed as effective at 0.01%
[4] = test system: Pseudomonas savastanoi pv. glycinea; test: In vitro antibacterial activity against Pseudomonas syringae pv. glycinea S1 assessed as inhibition at 0.1 %
[5] = test system: Pseudomonas savastanoi pv. phaseolicola; test: In vitro antibacterial activity against Pseudomonas syringae pv. phaseolicola E81 assessed as inhibition at 0.1 %
Pseudomonas viridiflava = test: In vitro antibacterial activity against Pseudomonas viridiflava 8 assessed as inhibition at 0.1 %
[6] = test system: Xanthomonas phaseoli pv. phaseoli; test: In vitro antibacterial activity against Xanthomonas campestris pv. phaseoli assessed as inhibition at 0.1 %

Structure (SMILES) | Efficacy (Alternaria alternata) [%] | diameter of the inhibition zone (DIZ) [1] [cm] | diameter of the inhibition zone (DIZ) [2] [cm] | diameter of the inhibition zone (DIZ) (Agrobacterium sp.) [cm] | diameter of the inhibition zone (DIZ) (Botrytis cinerea) [cm] | Efficacy [3] [%] | diameter of the inhibition zone (DIZ) [4] [cm] | other results
COc1cccc(Cn2c(N)nc3cc(C)c(C)cc32)c1 | 100 |  |  |  |  |  |  | 
CCCCn1c(N)nc2cc(C)c(C)cc21 | 100 | 2 | 2 | 3 |  |  |  | 
CCCCn1c(N)nc2ccccc21 | 50 | 3 | 3 | 3 | 3 | 30 |  | 
Cc1cc2ncn(Cc3ccccc3Cl)c2cc1C | 50 | 1 |  |  | 1 |  | 1 | inhibition [2]: inactive; diameter of the inhibition zone (DIZ) [5]: 1 cm; inhibition (Pseudomonas viridiflava): inactive; inhibition [6]: inactive
Cc1cc2ncn(Cc3cccc(F)c3)c2cc1C | 50 | 3 | 3 | 3 |  | 70 |  | 
Cc1cc2nc(/N=C/c3ccc([N+](=O)[O-])o3)n(Cc3ccc(Cl)cc3)c2cc1C |  | 1 | 1 |  | 3 | 70 | 2 | diameter of the inhibition zone (DIZ) [5]: 2 cm; diameter of the inhibition zone (DIZ) (Pseudomonas viridiflava): 1 cm; diameter of the inhibition zone (DIZ) [6]: 3 cm
Nc1nc2ccccc2n1Cc1cccc(Cl)c1 | 50 | 3 | 3 |  |  |  | 2 | inhibition (Botrytis cinerea): inactive; inhibition [5]: inactive; diameter of the inhibition zone (DIZ) (Pseudomonas viridiflava): 3 cm; diameter of the inhibition zone (DIZ) [6]: 3 cm
Cc1cccc(Cn2c(N)nc3ccccc32)c1 | 100 | 3 | 3 | 2 |  |  |  | 
O=[N+]([O-])c1ccc(/C=N/c2nc3ccccc3n2Cc2ccccc2Cl)o1 |  |  |  |  | 1 | 70 | 3 | inhibition [1]: inactive; inhibition [2]: inactive; diameter of the inhibition zone (DIZ) [5]: 1 cm; inhibition (Pseudomonas viridiflava): inactive; inhibition [6]: inactive
Cc1cc2ncn(Cc3ccc(Cl)cc3)c2cc1C |  | 1 | 1 |  |  | 30 |  | inhibition [4]: inactive; inhibition (Botrytis cinerea): inactive; inhibition [5]: inactive; inhibition (Pseudomonas viridiflava): inactive; inhibition [6]: inactive
COc1cccc(Cn2c(N)nc3ccccc32)c1 | 100 | 3 | 3 | 3 |  |  |  | 
